{"source": "patent US20090082435A1", "about": "“Methods, Compositions, And Compounds For Modulation Of Monoacylglycerol Lipase, Pain, And Stress-Related Disorders” (The Regents of the University of California, priority 2005, published 2009)", "key": {"[1]": {"tested_on": "stress-induced analgesia in rats", "test": "non-opioid stress-induced analgesia: foot shock, then tail-flick test", "format": "in vivo, rat"}, "[2]": {"tested_on": "tail-flick latencies in rats", "test": "tail-flick test without stressor: basal thresholds, agonist antinociception", "format": "in vivo, rat", "conditions": "for basal nociceptive threshold (tail-flick latencies) in absence of stressor: same doses and routes as in stress analgesia tests; for drug's own antinociceptive effects after repeated daily injections: prior to foot shock, WIN55,212-2 14 days, morphine 7 days"}, "native rat brain MGL": {"biological_target": "T1, native rat brain MGL (Rattus norvegicus, UniProt Q8R431)", "T1 construct": "from tissue; host or cells: Wistar rat brain, cytosol fraction", "T1 sequence (Q8R431 1-303)": "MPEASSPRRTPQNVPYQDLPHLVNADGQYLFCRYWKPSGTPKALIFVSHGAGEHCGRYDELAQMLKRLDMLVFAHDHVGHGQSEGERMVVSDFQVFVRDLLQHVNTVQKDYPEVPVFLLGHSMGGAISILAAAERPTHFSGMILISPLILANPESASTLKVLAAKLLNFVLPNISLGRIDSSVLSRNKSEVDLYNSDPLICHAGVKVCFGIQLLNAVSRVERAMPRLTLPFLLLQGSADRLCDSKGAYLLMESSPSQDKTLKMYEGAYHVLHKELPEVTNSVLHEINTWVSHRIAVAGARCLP", "test": "MGL activity assay, rat brain cytosol, 2-monooleoylglycerol substrate", "format": "biochemical", "conditions": "for effect on rat brain MGL activity in vitro: FIG. 3b"}, "[3]": {"tested_on": "organotypic slice cultures of rat forebrain", "test": "endocannabinoid content by LC/MS in organotypic brain slice cultures", "format": "cell-based", "conditions": "URB602 100 μM; for anandamide levels: URB597 1 μM", "method": "Brain slice cultures. Brain slices were cultured from Wistar rats. Pups were sacrificed on post-natal day 5 by decapitation following cryo-anaesthesia. Brains were removed and cut (0.4 mm-thick coronal slices) using a vibratome in a bath of ice-cold high-glucose Dulbecco's Modified Eagle's Medium (Gibco). Hemispheres were placed on Millicell culture inserts (Millipore) in 6-well plates with serum-based culture medium (1.5 ml) composed of basal Eagle medium with Earle's salts (100 ml), Earle's balanced salt solution (50 ml), heat-inactivated horse serum (50 ml), L-glutamine (0.2 mM, 1 ml) and 50% glucose (2 ml) (Gibco). Slices were maintained at 37° C. with 5% CO2 for 7 days before use.\n(§1) Lipid extractions and LC/MS analyses. Ex vivo experiments. Rats were habituated to the guillotine for at least 7 days prior to the experiment and sacrificed them either before or various times (2, 7, 15 and 25 min) after a 3-min foot shock (n=10 per group). The brains were rapidly removed, dissected and stored frozen (−80° C.) until lipid extraction. In vitro experiments. […] In some experiments, slices were incubated with ionomycin (2 μM) in DMEM for additional 15 min. Reactions were stopped and washed with ice-cold 50% methanol (1 ml). Slices were collected in the same medium (0.2 ml) and homogenized. Brain tissue (≈50 mg) and slice homogenates were suspended in methanol (2 ml) containing [^2H]-containing internal standards (25 pmol). Lipids were extracted in methanol-chloroform-H2O (1:2:0.25). The organic phase was recovered, evaporated to dryness, reconstituted in chloroform/methanol (1:3, 80 μL) and subjected to LC/MS analysis as described (Giuffrida, A. et al., Anal. Biochem. 280:87-93 (2000))."}, "[4]": {"tested_on": "diacylglycerol lipase (DGL)", "test": "DGL activity assay, rat brain protein, [3H]dioleoylglycerol", "format": "biochemical"}, "phospholipase C (PLC)": {"biological_target": "phospholipase C (PLC) (Bacillus cereus, UniProt P09598)", "sequence (P09598 39-283 limits assumed)": "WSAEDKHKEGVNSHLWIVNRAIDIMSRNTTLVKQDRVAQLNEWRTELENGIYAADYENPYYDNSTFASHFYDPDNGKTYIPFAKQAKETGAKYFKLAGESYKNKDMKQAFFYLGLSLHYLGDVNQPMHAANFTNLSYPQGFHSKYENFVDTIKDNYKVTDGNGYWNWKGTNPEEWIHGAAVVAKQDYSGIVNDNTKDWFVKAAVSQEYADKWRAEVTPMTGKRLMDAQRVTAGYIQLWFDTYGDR", "test": "phospholipase C activity assay", "format": "biochemical, B. cereus"}, "rat brain FAAH": {"biological_target": "T2, rat brain FAAH (Rattus norvegicus, UniProt P97612)", "T2 construct": "from tissue; host or cells: Wistar rat brain, membrane fraction", "T2 sequence (P97612 1-579)": "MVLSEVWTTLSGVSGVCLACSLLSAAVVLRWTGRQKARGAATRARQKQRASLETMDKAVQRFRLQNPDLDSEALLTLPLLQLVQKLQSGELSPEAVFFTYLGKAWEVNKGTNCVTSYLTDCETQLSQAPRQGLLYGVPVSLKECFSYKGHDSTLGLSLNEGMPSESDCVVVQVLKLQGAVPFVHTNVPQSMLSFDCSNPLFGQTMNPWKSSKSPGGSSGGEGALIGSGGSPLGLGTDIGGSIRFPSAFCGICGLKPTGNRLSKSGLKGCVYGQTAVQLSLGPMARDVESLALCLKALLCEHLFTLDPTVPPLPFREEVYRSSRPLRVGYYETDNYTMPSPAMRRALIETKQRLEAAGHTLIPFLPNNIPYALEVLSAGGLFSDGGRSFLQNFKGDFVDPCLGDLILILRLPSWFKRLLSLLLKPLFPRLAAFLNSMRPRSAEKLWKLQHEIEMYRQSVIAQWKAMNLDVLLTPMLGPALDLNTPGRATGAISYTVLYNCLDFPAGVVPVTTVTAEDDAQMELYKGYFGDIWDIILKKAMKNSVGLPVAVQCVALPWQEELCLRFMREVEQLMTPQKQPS", "test": "FAAH activity assay, rat brain membranes, anandamide substrate", "format": "biochemical", "conditions": "FIG. 3c"}, "PLD": {"tested_on": "PLD", "test": "phospholipase D activity assay", "format": "biochemical, S. chromofuscus"}, "rat cerebellar membranes": {"biological_target": "rat cerebellar membranes", "test": "[35S]-GTP-γ-S binding to rat cerebellar membranes", "format": "biochemical", "conditions": "data not shown; read-out: half-maximal effective concentration (EC50), [35S]-GTP-γ-S binding"}, "cyclooxygenase (Cox)-2": {"biological_target": "T3, cyclooxygenase (Cox)-2 (Homo sapiens, UniProt P35354)", "T3 construct": "purchased Cayman Chemicals, Ann Arbor, Mich", "T3 sequence (P35354 18-604)": "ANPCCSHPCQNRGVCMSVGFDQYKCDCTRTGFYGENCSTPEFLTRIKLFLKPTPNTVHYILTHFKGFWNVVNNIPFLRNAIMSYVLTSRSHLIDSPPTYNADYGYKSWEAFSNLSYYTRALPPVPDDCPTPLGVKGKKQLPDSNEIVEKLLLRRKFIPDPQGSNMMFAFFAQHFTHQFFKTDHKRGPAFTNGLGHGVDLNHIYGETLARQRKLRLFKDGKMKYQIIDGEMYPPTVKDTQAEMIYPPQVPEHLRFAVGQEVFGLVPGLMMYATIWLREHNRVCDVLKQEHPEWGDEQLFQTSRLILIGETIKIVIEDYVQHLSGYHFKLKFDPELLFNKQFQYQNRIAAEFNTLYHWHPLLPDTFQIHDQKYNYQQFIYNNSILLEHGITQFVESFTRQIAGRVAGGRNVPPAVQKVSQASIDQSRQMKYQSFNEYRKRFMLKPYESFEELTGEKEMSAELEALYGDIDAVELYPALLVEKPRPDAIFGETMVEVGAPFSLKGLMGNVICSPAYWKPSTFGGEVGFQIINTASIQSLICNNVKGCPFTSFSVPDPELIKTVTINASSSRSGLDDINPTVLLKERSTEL", "test": "cyclooxygenase assay, commercial kit with purified enzymes", "format": "biochemical"}, "[5]": {"tested_on": "2-AG and anandamide levels in rat brain", "test": "ex vivo brain endocannabinoid levels by LC/MS after PAG microinjection and foot shock", "format": "in vivo", "method": "as §1"}, "[6]": {"conditions": "URB602 0.1 nmol in PAG, 25 min after shock"}}, "data": [{"smiles": "Cc1c(C(=O)NN2CCCCC2)nn(-c2ccc(Cl)cc2Cl)c1-c1ccc(I)cc1", "note": "[AM251]", "values": [{"measurement": "effect of antagonist on stress-induced analgesia, systemic", "setting": "[1]; rat, in vivo, ip", "result": "almost abolished"}]}, {"smiles": "NC(=O)c1cccc(-c2cccc(OC(=O)NC3CCCCC3)c2)c1", "note": "[URB597]", "values": [{"measurement": "basal nociceptive threshold (tail-flick latencies) in absence of stressor", "setting": "[2]", "result": "did not modify"}, {"measurement": "effect on stress-induced analgesia, URB597 in dorsolateral PAG", "setting": "[1]; rat, in vivo", "result": "significant potentiation"}, {"measurement": "effect on stress-induced analgesia, URB597 systemic", "setting": "[1]; rat, in vivo, ip", "result": "significant potentiation"}, {"measurement": "effect on rat brain MGL activity in vitro", "setting": "native rat brain MGL", "result": "no effect"}, {"measurement": "anandamide levels", "setting": "[3]", "result": "markedly elevated"}]}, {"smiles": "O=C(Nc1cccc(-c2ccccc2)c1)OC1CCCCC1", "note": "[URB602, biphenyl-3-yl carbamic acid cyclohexyl ester]", "values": [{"measurement": "basal nociceptive threshold (tail-flick latencies) in absence of stressor", "setting": "[2]", "result": "without altering"}, {"measurement": "effect on stress-induced analgesia, URB602 in dorsolateral PAG", "setting": "[1]; 0.1 nmol microinjection", "result": "enhanced"}, {"measurement": "effect on stress-induced analgesia, URB602 in ventrolateral PAG", "setting": "[1]; 0.1 nmol microinjection", "result": "enhanced"}, {"measurement": "effect on DGL activity", "setting": "[4]", "result": "did not affect"}, {"measurement": "effect on rat brain MGL activity in vitro", "setting": "native rat brain MGL", "result": "inhibits"}, {"measurement": "IC50", "setting": "native rat brain MGL; broken cell preparations, read-out: half-maximal concentration (IC50) for inhibition of MGL", "result": "28 ± 4", "unit": "µM"}, {"measurement": "mechanism of MGL inhibition", "setting": "native rat brain MGL; kinetic analyses", "result": "non-competitive"}, {"measurement": "Vmax of MGL with URB602", "setting": "native rat brain MGL; n=4, without URB602 1814±51", "result": "541±20", "unit": "nmol-min-mg^−1 protein"}, {"measurement": "effect on PLC activity", "setting": "phospholipase C (PLC)", "result": "did not affect"}, {"measurement": "effect on rat brain FAAH activity", "setting": "rat brain FAAH", "result": "does not affect"}, {"measurement": "effect on PLD activity", "setting": "PLD", "result": "did not affect"}, {"measurement": "EC50", "setting": "rat cerebellar membranes", "result": "> 100", "unit": "µM"}, {"measurement": "effect on Cox-2 activity", "setting": "cyclooxygenase (Cox)-2", "result": "did not affect"}, {"measurement": "basal 2-AG levels", "setting": "[3]", "result": "significantly increased"}, {"measurement": "anandamide levels", "setting": "[3]", "result": "did not modify"}, {"measurement": "2-AG accumulation elicited by ionomycin", "setting": "[3]; ionomycin 2 μM", "result": "enhanced"}, {"measurement": "2-AG content in midbrain fragments vs untreated controls", "setting": "[5]; [6]", "result": "significantly higher"}, {"measurement": "anandamide levels in midbrain vs untreated controls", "setting": "[5]; [6]", "result": "identical"}, {"measurement": "2-AG and anandamide concentrations in occipital cortex", "setting": "[5]; URB602 injection into the PAG", "result": "not affected"}]}, {"smiles": "Cc1c(C(=O)c2cccc3ccccc23)c2cccc3c2n1[C@H](CN1CCOCC1)CO3", "note": "[WIN55, 212-2]", "values": [{"measurement": "drug's own antinociceptive effects after repeated daily injections", "setting": "[2]", "result": "decrease"}, {"measurement": "stress-induced analgesia in rats made tolerant to the agonist", "setting": "[1]; rat, in vivo", "result": "marked reduction"}]}, {"smiles": "CN1CC[C@]23c4c5ccc(O)c4O[C@H]2[C@@H](O)C=C[C@H]3[C@H]1C5", "note": "[morphine]", "values": [{"measurement": "mean tail-flick latency after morphine, cannabinoid tolerant rats", "setting": "[2]; morphine 2.5 mg-kg^−1 s.c., rats tolerant to WIN55,212-2, n=6-7", "result": "6.09 ± 1.93", "unit": "s"}, {"measurement": "mean tail-flick latency after morphine, control rats", "setting": "[2]; morphine 2.5 mg-kg^−1 s.c., vehicle-treated controls, n=6-7", "result": "5.33 ± 0.21", "unit": "s"}, {"measurement": "drug's own antinociceptive effects after repeated daily injections", "setting": "[2]", "result": "decrease"}, {"measurement": "stress-induced analgesia in rats made tolerant to the agonist", "setting": "[1]; rat, in vivo", "result": "normal degree"}]}, {"smiles": "O=C1CC[C@@]2(O)[C@H]3Cc4ccc(O)c5c4[C@@]2(CCN3CC2CC2)[C@H]1O5", "note": "[naltrexone]", "values": [{"measurement": "effect of antagonist on stress-induced analgesia, systemic", "setting": "[1]; rat, in vivo, ip", "result": "insensitive"}]}, {"smiles": "Cc1c(C(=O)NN2CCCCC2)nn(-c2ccc(Cl)cc2Cl)c1-c1ccc(Cl)cc1", "note": "[rimonabant]", "values": [{"measurement": "basal nociceptive threshold (tail-flick latencies) in absence of stressor", "setting": "[2]", "result": "does not alter"}, {"measurement": "effect of low-dose rimonabant alone on stress analgesia", "setting": "[1]; 0.2 nmol in PAG", "result": "insufficient to reverse"}, {"measurement": "rimonabant effect on MAFP enhancement of stress analgesia", "setting": "[1]; co-injection, rimonabant 0.2 nmol", "result": "blocked"}, {"measurement": "effect of antagonist on stress-induced analgesia, systemic", "setting": "[1]; i.p., naltrexone 14 mg-kg^−1, rimonabant, AM251, SR144528 5 mg-kg^−1", "result": "almost abolished"}, {"measurement": "rimonabant effect on URB602 enhancement of stress analgesia", "setting": "[1]; local co-administration in PAG, rimonabant 0.2 nmol", "result": "prevented"}, {"measurement": "effect on stress-induced analgesia, ventrolateral PAG", "setting": "[1]; rimonabant 2 nmol", "result": "inactive"}, {"measurement": "effect on stress-induced analgesia, dorsolateral PAG", "setting": "[1]; rimonabant 2 nmol microinjected", "result": "significantly reduced"}, {"measurement": "rimonabant effect on URB597 potentiation of stress analgesia", "setting": "[1]; rimonabant 1 mg-kg^−1 i.p., 0.2 nmol in the PAG", "result": "prevented"}, {"measurement": "rimonabant effect on VDM11 enhancement of stress analgesia", "setting": "[1]; rimonabant 2 mg-kg^−1 i.p.", "result": "blocked"}, {"measurement": "effect on stress-induced analgesia, lateral ventricle", "setting": "[1]; rimonabant 2-10 nmol", "result": "ineffective"}]}]}
